Laboratory results published in patent US10961278B2, “Vancomycin derivative, preparation method, pharmaceutical composition and use thereof” (SHANGHAI INSTITUTE OF MATERIA MEDICA, CHINESE ACADEMY OF …, priority 2016, dated 2021).
In brackets after ≈: the same amount, converted by molar mass. Like-named read-outs stand apart in the source and are kept apart here.

Assays:
[1] = system: vancomycin-middle resistant Staphylococcus aureus Mu50 strain; experiment: In vitro antibacterial activity assay (MIC, CLSI dilution method); assay type: cell-based
[2] = system: vancomycin-sensitive Staphylococcus aureus Newman strain; experiment: as above; assay type: cell-based; conditions: Staphylococcus aureus, S. aureus Newman, 37° C., 16 h
[3] = Staphylococcus aureus, 16 h, S. aureus Mu50, 37° C., read-out: MIC Mu50
[4] = Staphylococcus aureus, 16 h, read-out: MIC Mu50

Row | MIC [1, 3] [µg/mL] | MIC ([2]; NEWMAN) [µg/mL] | Structure (SMILES) | MIC ([1]; Staphylococcus aureus; S. aureus Mu50, 37° C., 16 h; read-out: MIC Mu50) [µg/mL] | MIC [2] [µg/mL] | MIC [1, 4] [µg/mL]
1 | – | – | CN[C@H](CC(C)C)C(=O)N[C@H]1C(=O)N[C@@H](CC(N)=O)C(=O)N[C@H]2C(=O)N[C@H]3C(=O)N[C@H](C(=O)N[C@H](C(=O)O)c4cc(O)c(CNCCCNC(=O)[C@H](O)[C@@H](O)[C@H](O)[C@H](O)CO)c(O)c4-c4cc3ccc4O)[C@H](O)c3ccc(c(Cl)c3)Oc3cc2cc(c3OC2O[C@H](CO)C(O)C(O)[C@H]2O[C@@H]2CC(C)[C@@H](O)C(C)(NCc3ccc(C#C[Si](C)(C)C)cc3)C2)Oc2ccc(cc2Cl)[C@H]1O (some centres unmarked) [Van028] | 2 (≈ 1.05 µM) | 1 (≈ 0.527 µM) | –
2 | 64 (≈ 34.3 µM) | 32 (≈ 17.2 µM) | CCCCCCCCCC(=O)NC1(C)C[C@H](O[C@H]2C(Oc3c4cc5cc3Oc3ccc(cc3Cl)[C@@H](O)[C@@H](NC(=O)[C@@H](CC(C)C)NC)C(=O)N[C@@H](CC(N)=O)C(=O)N[C@H]5C(=O)N[C@H]3C(=O)N[C@H](C(=O)N[C@H](C(=O)O)c5cc(O)c(CNCCCNC(=O)[C@H](O)[C@@H](O)[C@H](O)[C@H](O)CO)c(O)c5-c5cc3ccc5O)[C@H](O)c3ccc(c(Cl)c3)O4)O[C@H](CO)C(O)C2O)CC(C)[C@H]1O (some centres unmarked) [Van026] | – | – | –
3 | 32 (≈ 17 µM) | 16 (≈ 8.51 µM) | CCCCCCCCCCC(=O)NC1(C)C[C@H](O[C@H]2C(Oc3c4cc5cc3Oc3ccc(cc3Cl)[C@@H](O)[C@@H](NC(=O)[C@@H](CC(C)C)NC)C(=O)N[C@@H](CC(N)=O)C(=O)N[C@H]5C(=O)N[C@H]3C(=O)N[C@H](C(=O)N[C@H](C(=O)O)c5cc(O)c(CNCCCNC(=O)[C@H](O)[C@@H](O)[C@H](O)[C@H](O)CO)c(O)c5-c5cc3ccc5O)[C@H](O)c3ccc(c(Cl)c3)O4)O[C@H](CO)C(O)C2O)CC(C)[C@H]1O (some centres unmarked) [Van025] | – | – | –
4 | 0.25 (≈ 0.137 µM) | ≤ 0.0625 | CCCCCCCCCCNCCNC1(C)C[C@H](O[C@@H]2C(O)C(O)[C@@H](CO)O[C@H]2Oc2c3cc4cc2Oc2ccc(cc2Cl)[C@@H](O)[C@@H](NC(=O)[C@@H](CC(C)C)NC)C(=O)N[C@@H](CC(N)=O)C(=O)N[C@H]4C(=O)N[C@@H]2C(=O)N[C@H](C(=O)N[C@H](C(=O)O)c4cc(O)c(CNC5C(O)OC(CO)[C@H](O)[C@@H]5O)c(O)c4-c4cc2ccc4O)[C@H](O)c2ccc(c(Cl)c2)O3)O[C@@H](C)[C@H]1O (some centres unmarked) [Van008] | – | – | –
5 | 2 (≈ 1 µM) | 1 (≈ 0.5 µM) | CN[C@H](CC(C)C)C(=O)N[C@H]1C(=O)N[C@@H](CC(N)=O)C(=O)N[C@H]2C(=O)N[C@H]3C(=O)N[C@H](C(=O)NC(C(=O)NCCCN(C)C)c4cc(O)c(CNCCCNC(=O)[C@H](O)[C@@H](O)[C@H](O)[C@H](O)CO)c(O)c4-c4cc3ccc4O)[C@H](O)c3ccc(c(Cl)c3)Oc3cc2cc(c3OC2O[C@H](CO)C(O)C(O)[C@H]2O[C@H]2CC(C)(NCc3ccc(-c4ccc(Cl)cc4)cc3)[C@H](O)C(C)O2)Oc2ccc(cc2Cl)[C@H]1O (some centres unmarked) [Van022] | – | – | –
6 | – | – | CN[C@H](CC(C)C)C(=O)N[C@H]1C(=O)N[C@@H](CC(N)=O)C(=O)N[C@H]2C(=O)N[C@H]3C(=O)N[C@H](C(=O)N[C@H](C(=O)O)c4cc(O)c(CNCCO[C@H]5OC(CO)[C@@H](O)C(O)C5O)c(O)c4-c4cc3ccc4O)[C@H](O)c3ccc(c(Cl)c3)Oc3cc2cc(c3OC2O[C@H](CO)C(O)C(O)[C@H]2O[C@@H]2CC(C)[C@@H](O)C(C)(NCc3ccc(-c4ccc(Cl)cc4)cc3)C2)Oc2ccc(cc2Cl)[C@H]1O (some centres unmarked) [Van013] | – | 2 (≈ 1.06 µM) | 4 (≈ 2.12 µM)
7 | 2 (≈ 1.07 µM) | 1 (≈ 0.534 µM) | CCCCOc1ccc(CNC2(C)C[C@H](O[C@H]3C(Oc4c5cc6cc4Oc4ccc(cc4Cl)[C@@H](O)[C@@H](NC(=O)[C@@H](CC(C)C)NC)C(=O)N[C@@H](CC(N)=O)C(=O)N[C@H]6C(=O)N[C@H]4C(=O)N[C@H](C(=O)N[C@H](C(=O)O)c6cc(O)c(CNCCCNC(=O)[C@H](O)[C@@H](O)[C@H](O)[C@H](O)CO)c(O)c6-c6cc4ccc6O)[C@H](O)c4ccc(c(Cl)c4)O5)O[C@H](CO)C(O)C3O)CC(C)[C@H]2O)cc1 (some centres unmarked) [Van030] | – | – | –
8 | 2 (≈ 1.07 µM) | 1 (≈ 0.535 µM) | CCCCCCCCCCNCCNC1(C)C[C@H](O[C@H]2C(Oc3c4cc5cc3Oc3ccc(cc3Cl)[C@@H](O)[C@@H](NC(=O)[C@@H](CC(C)C)NC)C(=O)N[C@@H](CC(N)=O)C(=O)N[C@H]5C(=O)N[C@H]3C(=O)N[C@H](C(=O)N[C@H](C(=O)O)c5cc(O)c(CNCCOC6OC(CO)[C@@H](O)C(O)C6O)c(O)c5-c5cc3ccc5O)[C@H](O)c3ccc(c(Cl)c3)O4)O[C@H](CO)C(O)C2O)OC(C)[C@H]1O (some centres unmarked) [Van001] | – | – | –
9 | 1 (≈ 0.492 µM) | 0.5 (≈ 0.246 µM) | CN[C@H](CC(C)C)C(=O)N[C@H]1C(=O)N[C@@H](CC(N)=O)C(=O)N[C@H]2C(=O)N[C@H]3C(=O)N[C@H](C(=O)N[C@H](C(=O)O)c4cc(O)c(CNCCCNC(=O)[C@H](O)[C@@H](O)[C@H](O)[C@H](O)CO)c(O)c4-c4cc3ccc4O)[C@H](O)c3ccc(c(Cl)c3)Oc3cc2cc(c3OC2O[C@H](CO)C(O)C(O)[C@H]2O[C@@H]2CC(C)[C@@H](O)C(C)(NCc3ccc(OCc4cccc(-c5ccccc5)c4C)c(Cl)c3)C2)Oc2ccc(cc2Cl)[C@H]1O (some centres unmarked) [Van017] | – | – | –
10 | – | – | C#Cc1ccc(CNC2(C)C[C@H](O[C@@H]3C(O)C(O)[C@@H](CO)O[C@H]3Oc3c4cc5cc3Oc3ccc(cc3Cl)[C@@H](O)[C@@H](NC(=O)[C@@H](CC(C)C)NC)C(=O)N[C@@H](CC(N)=O)C(=O)N[C@H]5C(=O)N[C@@H]3C(=O)N[C@H](C(=O)N[C@H](C(=O)O)c5cc(O)c(CNC6C(O)OC(CO)[C@H](O)[C@@H]6O)c(O)c5-c5cc3ccc5O)[C@H](O)c3ccc(c(Cl)c3)O4)O[C@@H](C)[C@H]2O)cc1 (some centres unmarked) [Van035] | – | 2 (≈ 1.14 µM) | 8 (≈ 4.56 µM)
